Species: Rattus norvegicus
Assay: Open TG-GATES - Regimen: Daily Repeat
Assay type: toxicity, organism-based, Sprague-Dawley
Design: regimen Daily Repeat, gender Male, age 6 weeks
Details: in vivo, po, route gavage; for APTT / Bas / Eos / Fbg / Hb / Ht / Lym / MCH / MCHC / MCV / Mono / Neu / PT / Plat / RBC / Ret / WBC: tissue Blood; for KIDNEY_L / KIDNEY_R / KIDNEY_TOTAL: tissue Kidney; for LIVER: tissue Liver; for ALP / ALT / AST / BUN / CRE / DBIL / GLC / IP / K / LDH / Na / PL / RALB / TBIL / TC / TG / TP / gamma-GTP: tissue Plasma
[1] = 100 mg/kg, 72 h, dose level Middle, time 3 day
[2] = 100 mg/kg, […], dose level Middle, time 7 day
[3] = 100 mg/kg, […], dose level Middle, time 14 day
[4] = 100 mg/kg, […], dose level Middle, time 28 day
[5] = 300 mg/kg, 72 h, dose level High, time 3 day
[6] = 300 mg/kg, […], dose level High, time 7 day
[7] = 300 mg/kg, […], dose level High, time 14 day
[8] = 300 mg/kg, […], dose level High, time 28 day

**Q.** What does the source list for `Clc1ccccc1CN1CCc2sccc2C1` [TICLOPIDINE]?
**A.** TERMINAL_BW [1]: 224.9 g; APTT [1]: 21.3 s; Bas [1]: 1%; Eos [1]: 1%; Fbg [1]: 224 mg/dL; Hb [1]: 13.4 g/dL; Ht [1]: 37.8%; Lym [1]: 80.6%; MCH [1]: 21.5 pg; MCHC [1]: 35.5%; MCV [1]: 60.4 fL; Mono [1]: 2.6%; Neu [1]: 14.6%; PT [1]: 11.3 s; Plat [1]: 125.6 x10_4/uL; RBC [1]: 626.4 x10_4/ul; Ret [1]: 5.6%; WBC [1]: 100.7 x10_2/uL; KIDNEY_L [1]: 1 g; KIDNEY_R [1]: 1 g; KIDNEY_TOTAL [1]: 1.9 g; LIVER [1]: 11.8 g; ALP [1]: 968 IU/L; ALT [1]: 38.2 IU/L; AST [1]: 65.8 IU/L; BUN [1]: 15.4 mg/dL; CRE [1]: 0.4 mg/dL; DBIL [1]: 0.07 mg/dL; GLC [1]: 195.6 mg/dL; IP [1]: 7.3 mg/dL; K [1]: 4 meq/L; LDH [1]: 152.8 IU/L; Na [1]: 142.2 meq/L; PL [1]: 162.6 mg/dL; RALB [1]: 3.3 g/dL; TBIL [1]: 0.1 mg/dL; TC [1]: 89.8 mg/dL; TG [1]: 69.8 mg/dL; TP [1]: 5.5 g/dL; gamma-GTP [1]: 0.8 IU/L; TERMINAL_BW [2]: 258 g; TERMINAL_BW [3]: 306.1 g; TERMINAL_BW [4]: 394.5 g; APTT [2]: 22.3 s; Bas [2]: 0.6%; Eos [2]: 0.8%; Fbg [2]: 227.4 mg/dL; Hb [2]: 13.6 g/dL; Ht [2]: 38.2%; MCH [2]: 21.4 pg; MCHC [2]: 35.5%; MCV [2]: 60.4 fL; Mono [2]: 2.6%; Neu [2]: 13%; PT [2]: 11.6 s; Plat [2]: 123.7 x10_4/uL; RBC [2]: 633.2 x10_4/ul; Ret [2]: 5.4%; WBC [2]: 117.5 x10_2/uL; APTT [3]: 19.9 s; Bas [3]: 0.8%; Eos [3]: 0.8%; Fbg [3]: 220.4 mg/dL; Hb [3]: 14.5 g/dL; Ht [3]: 40.6%; Lym [3]: 80.6%; MCH [3]: 21.3 pg; MCHC [3]: 35.7%; MCV [3]: 59.6 fL; Mono [3]: 2.2%; Neu [3]: 15.4%; PT [3]: 11.8 s; Plat [3]: 114.3 x10_4/uL; RBC [3]: 681 x10_4/ul; Ret [3]: 4.3%; WBC [3]: 108.6 x10_2/uL; APTT [4]: 18.7 s; Bas [4]: 1%; Eos [4]: 0.8%; Fbg [4]: 219.8 mg/dL; Hb [4]: 15.3 g/dL; Ht [4]: 41.1%; Lym [4]: 81.6%; MCH [4]: 20 pg; MCHC [4]: 37.4%; MCV [4]: 53.4 fL; Mono [4]: 2.2%; Neu [4]: 13.6%; PT [4]: 11.6 s; Plat [4]: 114.7 x10_4/uL; RBC [4]: 770 x10_4/ul; Ret [4]: 3%; WBC [4]: 136.4 x10_2/uL; KIDNEY_L [2]: 1.2 g; KIDNEY_R [2]: 1.2 g; KIDNEY_TOTAL [2]: 2.3 g; KIDNEY_L [3]: 1.2 g; KIDNEY_R [3]: 1.2 g; KIDNEY_TOTAL [3]: 2.5 g; KIDNEY_L [4]: 1.5 g; KIDNEY_R [4]: 1.5 g; KIDNEY_TOTAL [4]: 3 g; LIVER [2]: 13 g; LIVER [3]: 14.1 g; LIVER [4]: 17.9 g; ALP [2]: 969.2 IU/L; ALT [2]: 39.4 IU/L; AST [2]: 73.2 IU/L; BUN [2]: 14.8 mg/dL; CRE [2]: 0.4 mg/dL; DBIL [2]: 0.068 mg/dL; GLC [2]: 192.6 mg/dL; IP [2]: 7.2 mg/dL; K [2]: 3.9 meq/L; LDH [2]: 144.8 IU/L; Na [2]: 142.4 meq/L; PL [2]: 145.4 mg/dL; RALB [2]: 3.5 g/dL; TBIL [2]: 0.1 mg/dL; TC [2]: 74.8 mg/dL; TG [2]: 68.2 mg/dL; TP [2]: 5.7 g/dL; gamma-GTP [2]: 0.8 IU/L; ALP [3]: 792.6 IU/L; ALT [3]: 36.6 IU/L; AST [3]: 68.8 IU/L; BUN [3]: 15.8 mg/dL; CRE [3]: 0.4 mg/dL; DBIL [3]: 0.06 mg/dL; GLC [3]: 205 mg/dL; IP [3]: 7.5 mg/dL; K [3]: 3.8 meq/L; LDH [3]: 161.8 IU/L; Na [3]: 143.4 meq/L; PL [3]: 152.2 mg/dL; RALB [3]: 3.4 g/dL; TBIL [3]: 0.098 mg/dL; TC [3]: 78.8 mg/dL; TG [3]: 94.2 mg/dL; TP [3]: 5.7 g/dL; gamma-GTP [3]: 1 IU/L; ALP [4]: 625.8 IU/L; ALT [4]: 44 IU/L; AST [4]: 71.6 IU/L; BUN [4]: 17.6 mg/dL; CRE [4]: 0.5 mg/dL; DBIL [4]: 0.072 mg/dL; GLC [4]: 202.8 mg/dL; IP [4]: 7.5 mg/dL; K [4]: 3.8 meq/L; LDH [4]: 152.4 IU/L; Na [4]: 142.2 meq/L; PL [4]: 154.8 mg/dL; RALB [4]: 3.6 g/dL; TBIL [4]: 0.1 mg/dL; TC [4]: 76.8 mg/dL; TG [4]: 82.8 mg/dL; TP [4]: 6.3 g/dL; gamma-GTP [4]: 0.8 IU/L; TERMINAL_BW [5]: 211.5 g; APTT [5]: 25.4 s; Bas [5]: 0.6%; Eos [5]: 0.8%; Fbg [5]: 212.6 mg/dL; Hb [5]: 13.7 g/dL; Ht [5]: 38.5%; Lym [5]: 84%; MCH [5]: 21.4 pg; MCHC [5]: 35.5%; MCV [5]: 60.1 fL; Mono [5]: 2.6%; Neu [5]: 11.2%; PT [5]: 12.4 s; Plat [5]: 149.4 x10_4/uL; RBC [5]: 640.4 x10_4/ul; Ret [5]: 3.5%; WBC [5]: 84 x10_2/uL; KIDNEY_L [5]: 1.1 g; KIDNEY_R [5]: 1 g; KIDNEY_TOTAL [5]: 2.1 g; LIVER [5]: 13 g; ALP [5]: 1140 IU/L; ALT [5]: 40.2 IU/L; AST [5]: 68.6 IU/L; BUN [5]: 13.8 mg/dL; CRE [5]: 0.4 mg/dL; DBIL [5]: 0.084 mg/dL; GLC [5]: 175.4 mg/dL; IP [5]: 7 mg/dL; K [5]: 4 meq/L; LDH [5]: 134.6 IU/L; Na [5]: 142 meq/L; PL [5]: 163.2 mg/dL; RALB [5]: 3.2 g/dL; TBIL [5]: 0.1 mg/dL; TC [5]: 93 mg/dL; TG [5]: 55.6 mg/dL; TP [5]: 5.2 g/dL; gamma-GTP [5]: 1.6 IU/L; TERMINAL_BW [6]: 243.3 g; TERMINAL_BW [7]: 287.4 g; TERMINAL_BW [8]: 349.5 g; APTT [6]: 25.4 s; Bas [6]: 0.4%; Eos [6]: 1%; Fbg [6]: 249.2 mg/dL; Hb [6]: 13.3 g/dL; Ht [6]: 37.1%; Lym [6]: 73.6%; MCH [6]: 20.6 pg; MCHC [6]: 35.8%; MCV [6]: 57.3 fL; Mono [6]: 3%; Neu [6]: 20.8%; PT [6]: 12.5 s; Plat [6]: 141.7 x10_4/uL; RBC [6]: 646.4 x10_4/ul; Ret [6]: 4.9%; WBC [6]: 116.7 x10_2/uL; APTT [7]: 27.3 s; Bas [7]: 0.6%; Eos [7]: 1%; Fbg [7]: 229.6 mg/dL; Hb [7]: 14.1 g/dL; Ht [7]: 39.4%; Lym [7]: 82.4%; MCH [7]: 20.9 pg; MCHC [7]: 35.9%; MCV [7]: 58.1 fL; Mono [7]: 2.2%; Neu [7]: 12.8%; PT [7]: 12.5 s; Plat [7]: 123 x10_4/uL; RBC [7]: 679 x10_4/ul; Ret [7]: 4.4%; WBC [7]: 118.3 x10_2/uL; APTT [8]: 22.4 s; Bas [8]: 0.8%; Eos [8]: 1.4%; Fbg [8]: 261.8 mg/dL; Hb [8]: 14.8 g/dL; Ht [8]: 39.8%; Lym [8]: 77.4%; MCH [8]: 19.7 pg; MCHC [8]: 37.1%; MCV [8]: 53.3 fL; Mono [8]: 2.4%; Neu [8]: 17.6%; PT [8]: 11.8 s; Plat [8]: 108.6 x10_4/uL; RBC [8]: 747.8 x10_4/ul; Ret [8]: 3.2%; WBC [8]: 125.4 x10_2/uL; KIDNEY_L [6]: 1.1 g; KIDNEY_R [6]: 1.1 g; KIDNEY_TOTAL [6]: 2.2 g; KIDNEY_L [7]: 1.3 g; KIDNEY_R [7]: 1.3 g; KIDNEY_TOTAL [7]: 2.6 g; KIDNEY_L [8]: 1.5 g; KIDNEY_R [8]: 1.5 g; KIDNEY_TOTAL [8]: 3.1 g; LIVER [6]: 14.1 g; LIVER [7]: 16.6 g; LIVER [8]: 20 g; ALP [6]: 768.8 IU/L; ALT [6]: 49.8 IU/L; AST [6]: 78 IU/L; BUN [6]: 15.8 mg/dL; CRE [6]: 0.4 mg/dL; DBIL [6]: 0.084 mg/dL; GLC [6]: 172.6 mg/dL; IP [6]: 7.3 mg/dL; K [6]: 4.1 meq/L; LDH [6]: 186 IU/L; Na [6]: 142.4 meq/L; PL [6]: 222.6 mg/dL; RALB [6]: 3.5 g/dL; TBIL [6]: 0.1 mg/dL; TC [6]: 126.8 mg/dL; TG [6]: 67.4 mg/dL; TP [6]: 6 g/dL; gamma-GTP [6]: 1.8 IU/L; ALP [7]: 721.2 IU/L; ALT [7]: 35.2 IU/L; AST [7]: 62.4 IU/L; BUN [7]: 15.2 mg/dL; CRE [7]: 0.4 mg/dL; DBIL [7]: 0.08 mg/dL; GLC [7]: 201.4 mg/dL; IP [7]: 8.4 mg/dL; K [7]: 3.9 meq/L; LDH [7]: 141 IU/L; Na [7]: 142.2 meq/L; PL [7]: 182.8 mg/dL; RALB [7]: 3.4 g/dL; TBIL [7]: 0.1 mg/dL; TC [7]: 99.2 mg/dL; TG [7]: 53.6 mg/dL; TP [7]: 6 g/dL; gamma-GTP [7]: 2.4 IU/L; ALP [8]: 578.4 IU/L; ALT [8]: 47 IU/L; AST [8]: 67.6 IU/L; BUN [8]: 16.8 mg/dL; CRE [8]: 0.5 mg/dL; DBIL [8]: 0.086 mg/dL; GLC [8]: 197 mg/dL; IP [8]: 7.9 mg/dL; K [8]: 4 meq/L; LDH [8]: 196.6 IU/L; Na [8]: 141.6 meq/L; PL [8]: 206 mg/dL; RALB [8]: 3.7 g/dL; TBIL [8]: 0.1 mg/dL; TC [8]: 116.4 mg/dL; TG [8]: 62.4 mg/dL; TP [8]: 6.5 g/dL; gamma-GTP [8]: 2.6 IU/L

From ChEMBL document CHEMBL3885861, “Open TG-GATES”
